Measured values: PubChem BioAssay AID2060906 (Molecular Pharmacology Branch, DTP, NCI, 2025)

Test system: 485176-168-R4-J1-PDC complex spheroid growth
Assay: Anticancer human tumor 485176-168-R4-J1-PDC patient-derived pancreatic adenocarcinoma cell line growth inhibition [RAS]
Conditions: for IC50: curve of first compound; for viability, T/C: stronger effect = lower value
Method in brief: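 Multi-cell-type spheroids: tumor cells plus HUVEC endothelial cells and mesenchymal stem cells. RAS-pathway inhibitors were combined with targeted agents, each dosed in half-log steps down from clinical Cmax, or from 10 microM when Cmax was unknown.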
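Note: spheroids exposed to compounds for seven days before readout.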
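Throughout, for viability, T/C: luminescence viability expressed relative to DMSO vehicle wells set as 100%.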

C=CC(=O)Nc1cc(Nc2nccc(-c3cn(C)c4ccccc34)n2)c(OC)cc1N(C)CCN(C)C + C#Cc1c(F)ccc2cc(O)cc(-c3ncc4c(N5CC6CCC(C5)N6)nc(OCC56CCCN5CC(F)C6)nc4c3F)c12
IC50 (second compound 0.0316 µM): > 1 µM | IC50 (second compound 0.1 µM): > 1 µM | IC50 (second compound 0.316 µM): > 1 µM | IC50 (second compound 1 µM): > 1 µM | IC50 (second compound 3.16 µM): > 1 µM | IC50 (second compound 10 µM): > 1 µM | viability, T/C (second compound 0.0316 µM, first compound 0.00316 µM): 103% | viability, T/C (second compound 0.0316 µM, first compound 0.01 µM): 90.8% | viability, T/C (second compound 0.0316 µM, first compound 0.0316 µM): 99% | viability, T/C (second compound 0.0316 µM, first compound 0.1 µM): 80.7% | viability, T/C (second compound 0.0316 µM, first compound 0.316 µM): 88.9% | viability, T/C (second compound 0.0316 µM, first compound 1 µM): 66.7% | viability, T/C (second compound 0.1 µM, first compound 0.00316 µM): 115% | viability, T/C (second compound 0.1 µM, first compound 0.01 µM): 109% | viability, T/C (second compound 0.1 µM, first compound 0.0316 µM): 92.7% | viability, T/C (second compound 0.1 µM, first compound 0.1 µM): 92.9% | viability, T/C (second compound 0.1 µM, first compound 0.316 µM): 86.6% | viability, T/C (second compound 0.1 µM, first compound 1 µM): 66.8% | viability, T/C (second compound 0.316 µM, first compound 0.00316 µM): 82.5% | viability, T/C (second compound 0.316 µM, first compound 0.01 µM): 83.1% | viability, T/C (second compound 0.316 µM, first compound 0.0316 µM): 99% | viability, T/C (second compound 0.316 µM, first compound 0.1 µM): 100% | viability, T/C (second compound 0.316 µM, first compound 0.316 µM): 88.4% | viability, T/C (second compound 0.316 µM, first compound 1 µM): 62.3% | viability, T/C (second compound 1 µM, first compound 0.00316 µM): 95.8% | viability, T/C (second compound 1 µM, first compound 0.01 µM): 80.8% | viability, T/C (second compound 1 µM, first compound 0.0316 µM): 91% | viability, T/C (second compound 1 µM, first compound 0.1 µM): 96.1% | viability, T/C (second compound 1 µM, first compound 0.316 µM): 85.2% | viability, T/C (second compound 1 µM, first compound 1 µM): 64.4% | viability, T/C (second compound 3.16 µM, first compound 0.00316 µM): 106% | viability, T/C (second compound 3.16 µM, first compound 0.01 µM): 89.5% | viability, T/C (second compound 3.16 µM, first compound 0.0316 µM): 96.7% | viability, T/C (second compound 3.16 µM, first compound 0.1 µM): 75.6% | viability, T/C (second compound 3.16 µM, first compound 0.316 µM): 70.7% | viability, T/C (second compound 3.16 µM, first compound 1 µM): 68.5% | viability, T/C (second compound 10 µM, first compound 0.00316 µM): 100% | viability, T/C (second compound 10 µM, first compound 0.01 µM): 86.6% | viability, T/C (second compound 10 µM, first compound 0.0316 µM): 85.3% | viability, T/C (second compound 10 µM, first compound 0.1 µM): 103% | viability, T/C (second compound 10 µM, first compound 0.316 µM): 84% | viability, T/C (second compound 10 µM, first compound 1 µM): 61.9%

NC1c2ccccc2OC12CCN(c1cnc3c(N4CCCc5ncccc54)n[nH]c3n1)CC2 (centres undefined) + CCn1c(-c2cc(N3CCN(C)CC3)cnc2C(C)OC)c2c3cc(ccc31)-c1csc(n1)CC(NC(=O)C1CC1C)C(=O)N1CCCC(N1)C(=O)OCC(C)(C)C2
IC50 (second compound 0.000949 µM): > 10 µM | IC50 (second compound 0.003 µM): > 10 µM | IC50 (second compound 0.00949 µM): > 10 µM | IC50 (second compound 0.03 µM): > 10 µM | IC50 (second compound 0.0949 µM): > 10 µM | IC50 (second compound 0.3 µM): > 10 µM | viability, T/C (second compound 0.000949 µM, first compound 0.0316 µM): 86.4% | viability, T/C (second compound 0.000949 µM, first compound 0.1 µM): 88.8% | viability, T/C (second compound 0.000949 µM, first compound 0.316 µM): 97.4% | viability, T/C (second compound 0.000949 µM, first compound 1 µM): 85% | viability, T/C (second compound 0.000949 µM, first compound 3.16 µM): 89.2% | viability, T/C (second compound 0.000949 µM, first compound 10 µM): 79.1% | viability, T/C (second compound 0.003 µM, first compound 0.0316 µM): 93.1% | viability, T/C (second compound 0.003 µM, first compound 0.1 µM): 80.9% | viability, T/C (second compound 0.003 µM, first compound 0.316 µM): 76.7% | viability, T/C (second compound 0.003 µM, first compound 1 µM): 97.9% | viability, T/C (second compound 0.003 µM, first compound 3.16 µM): 91.8% | viability, T/C (second compound 0.003 µM, first compound 10 µM): 81.4% | viability, T/C (second compound 0.00949 µM, first compound 0.0316 µM): 81.7% | viability, T/C (second compound 0.00949 µM, first compound 0.1 µM): 93.2% | viability, T/C (second compound 0.00949 µM, first compound 0.316 µM): 76.2% | viability, T/C (second compound 0.00949 µM, first compound 1 µM): 81.1% | viability, T/C (second compound 0.00949 µM, first compound 3.16 µM): 81.9% | viability, T/C (second compound 0.00949 µM, first compound 10 µM): 67.2% | viability, T/C (second compound 0.03 µM, first compound 0.0316 µM): 83% | viability, T/C (second compound 0.03 µM, first compound 0.1 µM): 98% | viability, T/C (second compound 0.03 µM, first compound 0.316 µM): 83.4% | viability, T/C (second compound 0.03 µM, first compound 1 µM): 104% | viability, T/C (second compound 0.03 µM, first compound 3.16 µM): 91% | viability, T/C (second compound 0.03 µM, first compound 10 µM): 79% | viability, T/C (second compound 0.0949 µM, first compound 0.0316 µM): 80.8% | viability, T/C (second compound 0.0949 µM, first compound 0.1 µM): 82% | viability, T/C (second compound 0.0949 µM, first compound 0.316 µM): 76.9% | viability, T/C (second compound 0.0949 µM, first compound 1 µM): 85.2% | viability, T/C (second compound 0.0949 µM, first compound 3.16 µM): 100% | viability, T/C (second compound 0.0949 µM, first compound 10 µM): 76.9% | viability, T/C (second compound 0.3 µM, first compound 0.0316 µM): 87.4% | viability, T/C (second compound 0.3 µM, first compound 0.1 µM): 86.1% | viability, T/C (second compound 0.3 µM, first compound 0.316 µM): 69% | viability, T/C (second compound 0.3 µM, first compound 1 µM): 80.1% | viability, T/C (second compound 0.3 µM, first compound 3.16 µM): 83.1% | viability, T/C (second compound 0.3 µM, first compound 10 µM): 75.1%
